# Test results from patent US12352767B2, “Method of treating cognitive decline associated with neurological diseases based on a decrease in FLT4 expression or activity” (University of Virginia Patent Foundation, priority 2018, dated 2025).
# Entries after “also recorded” stand apart in the source; their conditions may differ.
# What was measured:
# mice = assay: Open field test; assay type: in vivo; conditions: Visudyne/photoconversion twice, two-week interval, adult mice
# Experimental: Open field was performed following a published protocol^51 with minor modifications. Mice were carried to the behavior room to habituate at least 30 min before starting the test. Mice were then placed into the open field arena (made of opaque white plastic material, 35 cm×35 cm) by a blinded experimenter and allowed to explore it for 15 min. Total distance (cm) and % time spent in the center (22 cm×22 cm) were quantified using video tracking software (TopScan, CleverSys, Inc.).
# [1] = system: hippocampal transcriptome; assay: RNA-seq of whole hippocampus after meningeal lymphatic ablation (Table 2, Table 3); assay type: in vivo, mice
# Experimental: After defrosting in ice, samples were mechanically dissociated in extraction buffer and RNA was isolated using the kit components according to the manufacturer's instructions (RNeasy mini kit, cat. no. 74106, Qiagen). The Illumina TruSeq Stranded Total RNA Library Prep Kit was used for cDNA library preparation from total RNA samples. Sample quality control was performed on an Agilent 4200 TapeStation Instrument, using the Agilent D1000 kit, and on the Qubit Fluorometer (Thermo Fisher Scientific). For RNA sequencing (RNA-seq), libraries were loaded on to a NextSeq 500 (Illumina) using an Illumina NextSeq High Output (150 cycle) cartridge (#FC-404-2002).
# The raw sequencing reads (FASTQ files) were first chastity filtered, which removes any clusters that have a higher than expected intensity of the called base compared to other bases. The quality of the reads was then evaluated using FastQC^57, and after passing quality control (QC), the expression of the transcripts was quantified against the UCSC mm10 genome^58 using Salmon^59. These transcript abundances were then imported into R and summarized with tximport^60, and then DESeq2^61 was used to normalize the raw counts, perform exploratory analysis (e.g., principal component analysis), and to perform differential expression (DE) analysis. Before DE analysis of the meningeal LECs from adult vs old mice dataset, surrogate variable analysis^62 (SVA) was used to identify and adjust for latent sources of unwanted variation as implemented in the SVA package^63. The P-values from the DE analysis were corrected for multiple hypothesis testing with the Benjamini-Hochberg false discovery rate procedure (adj. P-value). Functional enrichment of DE genes, using gene sets from Gene Ontology (GO) and Kyoto Encyclopedia of Genes and Genomes (KEGG), was determined with Fisher's exact test as implemented in the clusterProfiler^64 Bioconductor package. Heatmaps of the DE genes and enriched gene sets were generated with the R package pheatmap^65. Normalized counts of selected transcripts were used to calculate the fold change relative to respective controls.
# 5×FAD mice = assay: Amyloid pathology in meninges and hippocampus of 5xFAD mice (Aβ immunostaining); assay type: in vivo
# Experimental: Male or female wild-type mice (C57BL/6J background) were either bred in-house, purchased from the Jackson Laboratory (Bar Harbor, Maine, USA) or provided by the National Institutes of Health/National Institute on Aging (Bethesda, MD, USA). All mice were maintained in the animal facility for habituation for at least 1 week prior to the start of the manipulation/experimentation. C57BL/6J wild-type mice were tested at 2-3, 12-14 and 20-24 months of age. Male hemizygous B6.Cg-Tg(PDGFB-APPSwInd)20Lms/2Mmjax (J20, JAX stock #006293) and B6.Cg-Tg(APPSwFILon,PSEN1*M146L*L286V)6799Vas/Mmjax (5×FAD, JAX stock #008730) were purchased from the Jackson Laboratory and bred in-house on a C57BL/6J background. […] 5×FAD hemizygous mice overexpress the transgene constructs under neural-specific elements of the mouse thymocyte differentiation antigen 1 promoter and present accelerated accumulation of Aβ42 and deposition of amyloid and gliosis in the brain starting at 2 months of age, with dramatic amyloid plaque load without major behavioral deficits at 5 months^45. In-house bred male transgene carriers and non-carrier (WT) littermates were used at different ages that are indicated throughout the manuscript. Prox1^LacZ mice (designated Prox1^+/− mice in this manuscript) on a NMRI background (kindly provided by Dr. Guillermo Oliver, Northwestern University, Chicago, IL) were also bred in-house and used in this study as a constitutive model for dysfunctional lymphatic vessels^46. Mice of all strains were housed in an environment with controlled temperature and humidity, on 12 hours light/dark cycles (lights on at 7:00), and fed with regular rodent's chow and sterilized tap water ad libitum. All experiments were approved by the Institutional Animal Care and Use Committee of the University of Virginia.
# [2] = system: intracranial vasculature, blood-brain barrier, brain ventricles; conditions: mouse, in vivo
# Experimental: All MRI acquisitions were performed at the University of Virginia Molecular Imaging Core facilities in a 7T Clinscan system (Bruker, Ettlingen, Germany) equipped with a 30 mm diameter cylindrical RF Coil. For analysis of mouse intracranial vascular structure, mice were placed in the 7T Clinscan system under light anaesthesia with isoflurane (1-1.25% in oxygen). Structural imaging data of intracranial arteries (magnetic resonance angiography or MRA) was acquired with a high-resolution 3D isotropic Spiral Cine Phase Contrast (SCPC) technique: repetition time (TR)=15 ms, echo time (TE)=0.63 ms, field of view (FOV)=25×25 mm, slice thickness=0.01 mm, number of sagittal slices=160, number of averages per phase-encode step (NEX)=1 and flip angle (FA)=20°. Total imaging time was of about 15 min per mouse. Structural imaging data of intracranial veins (magnetic resonance venography or MRV) was acquired with a high-resolution 3D isotropic SCPC technique with a saturation band positioned caudal to the slices, in order to saturate the arterial signal: TR=17 ms, TE=4.54 ms, FOV=17×26 mm, slice thickness=0.3 mm, number of sagittal slices=160, NEX=2 and FA=90°. Total imaging time was of about 13 min per mouse. Vascular volume and diameters were quantified using semi-automatic segmentation tools provided in the OsiriX software. For analysis of mouse brain ventricular volume, mice were placed in the 7T Clinscan system under light anaesthesia with isoflurane and structural imaging data were acquired with a high-resolution 3D isotropic T2-weighted SPACE technique with the following parameters: TR=3000 ms, TE=139 ms, FOV=26×20.5 mm, slice thickness=0.13 mm, number of slices=160 and NEX=3, requiring a total acquisition time of about 16 min per mouse. Ventricular volumes were quantified using semi-automatic segmentation tools provided in the OsiriX software.
# Initially, a pre-contrast image was acquired after placing the mice in the 7T Clinscan system under light anaesthesia with isoflurane. Gadobenate dimeglumine (gadolinium or Gd, MultiHance, Bracco Diagnostics, Princeton, New Jersey) at 0.3 mmol/kg was then injected intravenously (i.v.), through a catheter inserted in the tail vein. To assess the rate of influx of a CSF tracer into the brain, mice were anaesthetized by i.p. injection of ketamine and xylazine in saline and an i.c.m. injection of 5 μL of Gd at a concentration of 25 mM in saline was performed. […] The mice were placed in the MRI apparatus and maintained under light anaesthesia with isoflurane. For MRI acquisition, maximum gradient strength of the system was 500 mT/m and the peak slew rate achievable was 6667 mT/m/ms. After i.v. injection of Gd or 10 min after injecting gadolinium into the CSF, a series of post-contrast T1-weighted images were taken through the head with the following parameters: TR=500 ms, TE=11 ms, FOV=20×20 mm with a 192×192 matrix (104 μm×104 μm resolution), slice thickness=0.7 mm, number of slices=22 and NEX=2. For i.v. Gd injection 5 post-contrast images were acquired requiring about 16 min per mouse (each sequence taken every 194 s). For brain influx of Gd injected into the CSF, the total acquisition time was of about 52 min per mouse (194 s×16 sequences per mouse), meaning that T1 images were acquired for approximately 1 hour post-injection.
# [3] = after meningeal lymphatic ablation (Visudyne/photoconversion) and MWM
# [4] = Visudyne/photoconversion for 1.5 months
substance,measurement,setting,value
verteporfin [Visudyne],open field time in center of the arena,mice,No differences between the groups
same,open field total distance,mice,No differences between the groups
same,number of genes down-regulated in the hippocampus,[1]; [3],2138 genes
same,number of genes up-regulated in the hippocampus,[1]; [3],1599 genes
same,hippocampal transcriptome (RNA-seq principal component analysis) without MWM,"[1]; four weeks of meningeal lymphatic ablation, Visudyne/photoconversion vs vehicle/photoconversion",did not induce significant changes; also recorded: did not show a differential clustering
same,hippocampal gene expression (RNA-seq) after MWM performance,"[1]; prolonged meningeal lymphatic ablation, Visudyne/photoconversion vs vehicle/photoconversion",significant differences in hippocampal gene expression; also recorded: differential clustering
same,amyloid deposition in the meninges,5×FAD mice; Visudyne/photoconversion every 3 weeks for 1.5 months from ~2 months of age,marked deposition of amyloid in the meninges
same,brain amyloid burden in the hippocampi,5×FAD mice; [4],aggravation of brain amyloid burden
same,macrophage recruitment to Aβ aggregates in meninges,5×FAD mice; [4],macrophage recruitment to large Aβ aggregates
same,arterial vessel volume,[2],no significant changes between groups
same,basilar artery diameter,[2],no significant changes between groups
same,structure of major intracranial veins and arteries,[2],not altered
same,superior sagittal sinus (SSS) diameter,[2],no significant changes between groups
same,venous vessel volume,[2],no significant changes between groups
